Laboratory results from patent publication US12565522B2, “Micropeptide HMMW and application thereof” (NANJING ANJI BIOTECHNOLOGY CO., LTD., priority 2019, dated 2026).
No end group written: not given here.

Tests used:
Assay type in all cases: in vivo, BALB/c nude mice
Conditions in all cases: for in vivo tumor growth inhibition rate: mouse, 15 mg/kg
[1] = system: MGC803 cells of stomach cancer
Description: (§1) • (1) Massively culture SCC4 cells of head and neck cancer, SW579 cells of thyroid cancer, A549 cells of lung cancer, TE13 cells of esophageal squamous cell carcinoma, MGC803 cells of stomach cancer, MDA-MB-231 cells of breast cancer, UOK262 cells of kidney cancer, and A431 cells of skin cancer of human, digest with a 0.25% pancreatin solution, centrifuge the cell suspension at 1,000 rpm for 5 min after termination of digestion, re-suspend the cells by serum-free DMEM culture medium, then count the cells and adjust cell concentration to 5×10^7 cells/ml; • (2) Inoculate each nude mouse (female mice at the age of 4-6 weeks and with a weight of 14-16 g were ordered and adaptively reared for 1 week in an SPF animal breeding room) with 100 μl of the cell suspension of the corresponding group in the left armpit, and the number of cells injected is 5×10^6; • (3) After inoculation, the tumor growth at the inoculation sites of nude mice was closely observed. On the 7th day after inoculation, white scabs appeared at the inoculation sites, which could move subcutaneously after being touched. With the growth of tumor tissue, hard tumor masses were gradually formed at the inoculation sites. On about the 14th day, the average volume of the tumor tissue reached 100 mm^3. BALB/c nude mice were randomly divided into three groups (the normal saline group was a blank control group, the micropeptide HMMW at a dose of 10 mg/kg was a low-dose group, and the micropeptide HMMW at a dose of 15 mg/kg was a high-dose group), 6 mice in each group, and the animals weighed 16-18 g at the beginning of administration; • (4) The volume of the transplanted tumor was measured and recorded every two days. The calculation formula of tumor volume (TV) is shown below: TV=0.5×a×b^2 • where, a is the length of the transplanted tumor (mm), and b is the width of the transplanted tumor (mm). • (1) Massively culture SCC4 cells of head and neck cancer, SW579 cells of thyroid cancer, A549 cells of lung cancer, TE13 cells of esophageal squamous cell carcinoma, MGC803 cells of stomach cancer, MDA-MB-231 cells of breast cancer, UOK262 cells of kidney cancer, and A431 cells of skin cancer of human, digest with a 0.25% pancreatin solution, centrifuge the cell suspension at 1,000 rpm for 5 min after termination of digestion, re-suspend the cells by serum-free DMEM culture medium, then count the cells and adjust cell concentration to 5×10^7 cells/ml; • (2) Inoculate each nude mouse (female mice at the age of 4-6 weeks and with a weight of 14-16 g were ordered and adaptively reared for 1 week in an SPF animal breeding room) with 100 μl of the cell suspension of the corresponding group in the left armpit, and the number of cells injected is 5×10^6; • (3) After inoculation, the tumor growth at the inoculation sites of nude mice was closely observed. On the 7th day after inoculation, white scabs appeared at the inoculation sites, which could move subcutaneously after being touched. With the growth of tumor tissue, hard tumor masses were gradually formed at the inoculation sites. On about the 14th day, the average volume of the tumor tissue reached 100 mm^3. BALB/c nude mice were randomly divided into three groups (the normal saline group was a blank control group, and each of micropeptides HMMW I to IX formed a group at a dose of 15 mg/kg), 6 mice in each group, and the animals weighed 16-18 g at the beginning of administration; • (4) The volume of the transplanted tumor was measured and recorded every two days. The calculation formula of tumor volume (TV) is shown below: TV=0.5×a×b^2 • where, a is the length of the transplanted tumor (mm), and b is the width of the transplanted tumor (mm).

[2] = system: SW579 cells of thyroid cancer
Description: as §1

[3] = system: MDA-MB-231 cells of breast cancer
Description: as §1

[4] = system: SCC4 cells of head and neck cancer
Description: as §1

[5] = system: UOK262 cells of kidney cancer
Description: as §1

[6] = system: A431 cells of skin cancer
Description: as §1

[7] = system: TE13 cells of esophageal squamous cell carcinoma
Description: as §1

[8] = system: A549 cells of lung cancer
Description: as §1

Substance | in vivo tumor growth inhibition rate [1] [%] | in vivo tumor growth inhibition rate [2] [%] | in vivo tumor growth inhibition rate [3] [%] | in vivo tumor growth inhibition rate [4] [%] | in vivo tumor growth inhibition rate [5] [%] | in vivo tumor growth inhibition rate [6] [%] | in vivo tumor growth inhibition rate [7] [%] | in vivo tumor growth inhibition rate [8] [%] | inhibition of tumorigenicity in vivo ([1]; MGC803, nude mice, 10 and 15 mg/kg, vs normal saline, dose-dependent (Embodiment 6)) | inhibition of tumorigenicity in vivo ([2]; SW579, nude mice, 10 and 15 mg/kg, vs normal saline, dose-dependent (Embodiment 6)) | inhibition of tumorigenicity in vivo ([3]; MDA-MB-231, nude mice, 10 and 15 mg/kg, vs normal saline, dose-dependent (Embodiment 6)) | inhibition of tumorigenicity in vivo ([4]; SCC4, nude mice, 10 and 15 mg/kg, vs normal saline, dose-dependent (Embodiment 6)) | inhibition of tumorigenicity in vivo ([5]; UOK262, nude mice, 10 and 15 mg/kg, vs normal saline, dose-dependent (Embodiment 6)) | inhibition of tumorigenicity in vivo ([6]; A431, nude mice, 10 and 15 mg/kg, vs normal saline, dose-dependent (Embodiment 6)) | inhibition of tumorigenicity in vivo ([7]; TE13, nude mice, 10 and 15 mg/kg, vs normal saline, dose-dependent (Embodiment 6)) | inhibition of tumorigenicity in vivo ([8]; A549, nude mice, 10 and 15 mg/kg, vs normal saline, dose-dependent (Embodiment 6))
MERAGVPGFSPRRSSVEAKMQSTSCSVRKSSTVTAWPAVVLLLHTSKDDEE-OH [HMMW-II] | 70.08 | 64.76 | 68.95 | 66.24 | 63.12 | 71.22 | 62.86 | 71.32 |  |  |  |  |  |  |  | 
MERAGVPGFSPRRSSVEAKMQSTSCSVRKSSTVTAWPAVVLLLSWGKDDEE-OH [HMMW-IV] | 67.52 | 72.13 | 65.93 | 71.72 | 64.70 | 71.71 | 61.41 | 68.25 |  |  |  |  |  |  |  | 
MERAGVPGFSPRRSSVEAKMQSTSCSVRKSSTVTAWPAVVLLLSWGQRDEE-OH [HMMW-VI] | 66.51 | 66.79 | 71.18 | 73.54 | 65.19 | 68.25 | 65.56 | 65.27 |  |  |  |  |  |  |  | 
MERAGVPGFSPRRSSVEAKMQSTSCSVRKSSTVTAWPAVVLLLSWGQRRGE-OH [HMMW-VIII] | 69.38 | 71.76 | 69.82 | 68.24 | 65.15 | 68.21 | 68.81 | 69.30 |  |  |  |  |  |  |  | 
MERAGVPGFSPRRSSVEAKMQSTSCSVRKSSTVTAWPAVVLLLSWGQRRGG-OH [HMMW-I] | 68.12 | 66.63 | 67.97 | 72.56 | 63.80 | 62.74 | 65.43 | 69.23 | significantly inhibit | significantly inhibit | significantly inhibit | significantly inhibit | significantly inhibit | significantly inhibit | significantly inhibit | significantly inhibit
MGRAGVPGFSPRRSSVEAKMQSTSCSVRKSSTVTAWPAVVLLLSWGQRRGG-OH [HMMW-IX] | 68.61 | 67.89 | 69.36 | 71.84 | 65.23 | 64.33 | 65.31 | 69.09 |  |  |  |  |  |  |  | 
MGSTGVPGFSPRRSSVEAKMQSTSCSVRKSSTVTAWPAVVLLLSWGQRRGG-OH [HMMW-VII] | 65.11 | 68.63 | 68.91 | 72.75 | 64.37 | 67.70 | 71.23 | 69.13 |  |  |  |  |  |  |  | 
MGSTYNKRHSPRRSSVEAKMQSTSCSVRKSSTVTAWPAVVLLLSWGQRRGG-OH [HMMW-III] | 69.62 | 71.89 | 69.49 | 70.84 | 61.67 | 69.54 | 66.31 | 73.08 |  |  |  |  |  |  |  | 
MGSTYNPGFSPRRSSVEAKMQSTSCSVRKSSTVTAWPAVVLLLSWGQRRGG-OH [HMMW-V] | 71.04 | 70.78 | 67.75 | 67.14 | 64.16 | 69.41 | 63.46 | 71.12 |  |  |  |  |  |  |  | 
